According to patent US20230286973A1, “PROTEIN SECRETION INHIBITORS” (KEZAR LIFE SCIENCES, priority 2020, published 2023):
Where “and” joins values, the source holds several entries; their conditions need not be identical. Identical values can stand only once. Like-named read-outs stand apart in the source and are kept apart here.

Assays:
[1] = system: IL-2-FL/Gaussia Luciferase; test: Dox Induced IL2-FL-Gluc Assay; assay type: cell-based; details: for IC50: 24 hr Dox induction, 293FRT/TO cells, read-out: 24 hr Dox Inducible IL2FLGluc 293FRT/TO: Mean IC50; for 24 hr Dox Inducible IL2FLGluc 293FRT/TO: IL2/PD1: ratio of IL2FLGluc IC50 to PD1ssGluc IC50
Outline: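 A hygromycin- and blasticidin-resistant 293 T-REx clone carrying inducible IL-2–Gaussia luciferase (full-length IL-2, residues 1-153) serves as the cell system. After overnight plating, the cells get test compounds together with doxycycline in DMSO/media and are incubated at 37° C, 5% CO2.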

[2] = system: multiple myeloma cell line NCI-H929; test: H929 Cell Viability Assay; assay type: cell-based, human; details: NCI-H929 cells, Celltiter-Glo
Outline: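 A 48-hour compound treatment of cells in 10% FBS RPMI medium was followed by luciferase-based viability quantification.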

[3] = Liver Microsome Stability Assay (monkey); details: monkey liver microsomes, with NADPH, 1.0 uM compound
Description: (§1) Stability of a compound was assessed in the presence of liver microsomes from various sources—mouse, rat, monkey and human liver microsomes. 1.0 uM compound, 0.4% DMSO in 0.1 M Potassium Phosphate with 1.0 mg/mL liver microsomes, were incubated at 37° C. with or without 1 mM NADPH. The samples were quenched at 0, and 30 minutes.

[4] = system: multiple myeloma cell line U266B1; test: U266 Cell Viability Assay; assay type: cell-based, human; details: U266B1 cells, Celltiter-Glo
Outline: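 After growth in serum-supplemented RPMI 1640, cells received serially diluted compound in DMSO/media and were kept 48 hours before a CellTiter-Glo luminescence readout.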

[5] = Liver Microsome Stability Assay (human); details: human liver microsomes, with NADPH, 1.0 uM compound
Description: as §1

[6] = Liver Microsome Stability Assay (mouse); details: mouse liver microsomes, with NADPH, 1.0 uM compound
Description: as §1

[7] = system: HER3-ss+4aa/Gaussia Luciferase; test: Dox-Induced Her3-ss-Gluc Assay; assay type: cell-based; details: 24 hr Dox induction, 293FRT/TO cells, read-out: 24 hr Dox Inducible Her3(ss + 4)Gluc 293FRT/TO: Mean IC50
Outline: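 Doxycycline-inducible HER3 signal sequence+4aa/Gaussia luciferase construct, stably integrated in Flp-In 293 T-REx cells; compound dilutions applied with doxycycline at 37° C., 5% CO2.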

[8] = system: TNFα-FL/Gaussia Luciferase; test: Dox Induced TNFα-FL-Gluc Assay; assay type: cell-based; details: for IC50: 24 hr Dox induction, 293FRT/TO cells, read-out: 24 hr Dox Inducible TNFaFLGluc 293FRT/TO: Mean IC50; for 24 hr Dox Inducible TNFaFLGluc 293FRT/TO: TNF/PD1: ratio of TNFaFLGluc IC50 to PD1ssGluc IC50
Outline: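 Hygromycin/blasticidin-selected Flp-In 293 T-REx cells, TNFα-FL/Gaussia luciferase fusion under T-REx control; overnight plating, then compound in DMSO/media with doxycycline at 37 °C, 5% CO2; stereo-undefined structures tested as mixtures.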

[9] = system: PD1-ss+10aa/Gaussia Luciferase; test: Dox-Induced PD1-ss-Gluc Assay; assay type: cell-based; details: 24 hr Dox induction, 293FRT/TO cells, read-out: 24 hr Dox Inducible PD1ssGluc 293FRT/TO: Mean IC50
Outline: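 The cell line was made by transfecting Flp-In 293 T-REx cells with a PD1 signal sequence+10aa–Gaussia luciferase fusion under T-REx control and selecting with hygromycin and blasticidin. Cells were seeded, and next day compound plus doxycycline was added at 37 °C, 5% CO2.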

[10] = Liver Microsome Stability Assay (rat); details: rat liver microsomes, with NADPH, 1.0 uM compound
Description: as §1

[11] = '<=>' given where both are I.A.

Row | Structure (SMILES) | IC50 [1] | 24 hr Dox Inducible IL2FLGluc 293FRT/TO: IL2/PD1 [1] | EC50 ([2]; Homo sapiens, NCI-H929, 48 h) | Liver Microsome Stability (Multiple Species): Monkey - % Remaining after 30 min w/NADPH [3] | EC50 ([4]; Homo sapiens, U-266, 48 h) | Liver Microsome Stability (Multiple Species): Human - % Remaining after 30 min w/NADPH [5] | Liver Microsome Stability (Multiple Species): Mouse - % Remaining after 30 min w/NADPH [6] | IC50 [7] | IC50 [8] | 24 hr Dox Inducible TNFaFLGluc 293FRT/TO: TNF/PD1 [8] | IC50 [9] | Liver Microsome Stability (Multiple Species): Rat - % Remaining after 30 min w/NADPH [10] | IC50 ([1]; mean) | 24 hr Dox Inducible IL2FLGluc 293FRT/TO: IL2/PD1 [1, 11] | IC50 ([7]; mean) | IC50 ([8]; mean) | 24 hr Dox Inducible TNFaFLGluc 293FRT/TO: TNF/PD1 [8, 11] | IC50 ([9]; mean) | EC50 ([2]; 48 hr) | EC50 ([4]; 48 hr)
1 | CS(=O)(=O)N1CC(Oc2ccc(N3CCC[C@@H]3c3csc(NC(=O)c4cccn4Cc4ccnc(F)c4)n3)cc2)C1 [Compound A132, (R)-1-((2-fluoropyridin-4-yl)methyl)-N-(4-(1-(4-((1-(methylsulfonyl)azetidin-3-yl)oxy)phenyl)pyrrolidin-2-yl)thiazol-2-yl)-1H-pyrrole-2-carboxamide] | 105 nM | 1.8 | 2520 nM | 8.42% | > 25000 nM | 15.1% | 34.6% | 95 nM | 1060 nM | 18.5 | 57.3 nM | 47.1% |  |  |  |  |  |  |  | 
2 | Cc1cn(C(C)C)nc1/C=C/c1csc(NC(=O)c2cccn2Cc2ccnc(F)c2)n1 [Compound B83, (E)-1-((2-fluoropyridin-4-yl)methyl)-N-(4-(2-(1-isopropyl-4-methyl-1H-pyrazol-3-yl)vinyl)thiazol-2-yl)-1H-pyrrole-2-carboxamide] | 3230 nM | 10 | 11300 nM | 0.25% and 0.24% | 15300 nM | 2.94% and 2.65% | 11.1% and 10.1% | 1960 nM | 11700 nM | 36.6 | 320 nM | 6.87% and 5.01% |  |  |  |  |  |  |  | 
3 | Cc1ccnc(/C=C/c2csc(NC(=O)c3cccn3Cc3ccncc3)n2)c1 [Compound E1, (E)-N-(4-(2-(4-methylpyridin-2-yl)vinyl)thiazol-2-yl)-1-(pyridin-4-ylmethyl)-1H-pyrrole-2-carboxamide] |  |  | 23900 nM | 0.53% | > 25000 nM | 0.57% | 0.33% |  |  |  |  | 0.33% | 22100 nM | 140 | 4130 nM | > 25000 nM | >163 | 154 nM |  | 
4 | O=C(Nc1nc([C@H]2CCCN2c2ccc(OC3CCS(=O)(=O)CC3)cc2)cs1)c1cccn1Cc1ccnc(F)c1 [Compound A138, (R)-N-(4-(1-(4-((1,1-dioxidotetrahydro-2H-thiopyran-4-yl)oxy)phenyl)pyrrolidin-2-yl)thiazol-2-yl)-1-((2-fluoropyridin-4-yl)methyl)-1H-pyrrole-2-carboxamide] | 172 nM | 1.4 | 2570 nM | 6.25% | > 25000 nM | 25.1% | 25.2% | 167 nM | 1600 nM | 12.8 | 125 nM | 37.2% |  |  |  |  |  |  |  | 
5 | CC(=O)N1CCC(Oc2ccc(N3CCC[C@@H]3c3csc(NC(=O)c4cccn4Cc4ccnc(F)c4)n3)cc2C#N)CC1 [Compound A126, (R)-N-(4-(1-(4-((1-acetylpiperidin-4-yl)oxy)-3-cyanophenyl)pyrrolidin-2-yl)thiazol-2-yl)-1-((2-fluoropyridin-4-yl)methyl)-1H-pyrrole-2-carboxamide] | 72.5 nM | 1.2 | 1130 nM | 0.92% | > 25000 nM | 1.21% | 17.7% | 5.03 nM | 414 nM | 6.97 | 59.5 nM | 0.78% |  |  |  |  |  |  |  | 
6 | O=C(Nc1nc([C@H]2CCCN2c2ccc(OC3CN(C(=O)C4CC4)C3)cc2)cs1)c1cccn1Cc1ccnc(F)c1 [Compound A109, (R)-N-(4-(1-(4-((1-(cyclopropanecarbonyl)azetidin-3-yl)oxy)phenyl)pyrrolidin-2-yl)thiazol-2-yl)-1-((2-fluoropyridin-4-yl)methyl)-1H-pyrrole-2-carboxamide] | 90.7 nM | 2.9 | 1230 nM | 2.02% | > 25000 nM | 13.8% | 21% | 39.2 nM | 302 nM | 9.75 | 31 nM | 55.6% |  |  |  |  |  |  |  | 
7 | CC(=O)N1CCC(Oc2ccc(N3CCC[C@@H]3c3csc(NC(=O)c4cccn4Cc4ccnc(F)c4)n3)cc2)C1 (stereo partly drawn) [Compound A79, N-(4-((2R)-1-(4-((1-acetylpyrrolidin-3-yl)oxy)phenyl)pyrrolidin-2-yl)thiazol-2-yl)-1-((2-fluoropyridin-4-yl)methyl)-1H-pyrrole-2-carboxamide] | 29.7 nM | 2.8 | 345 nM | 0.78% | > 25000 nM | 5.48% | 5.88% | 23.2 nM | 171 nM | 15.9 | 10.8 nM | 37.7% |  |  |  |  |  |  |  | 
8 | O=C(Nc1nc([C@H]2CCCN2c2ccc(OC3CNC3)cc2)cs1)c1cccn1Cc1ccnc(F)c1 [Compound A85, (R)-N-(4-(1-(4-(azetidin-3-yloxy)phenyl)pyrrolidin-2-yl)thiazol-2-yl)-1-((2-fluoropyridin-4-yl)methyl)-1H-pyrrole-2-carboxamide] | 2110 nM and 1470 nM | 7.4 and 5 | 6260 nM | 49% and 62.5% | 10300 nM | 52.8% and 65.2% | 57.7% and 62.5% | 566 nM and 543 nM | 21600 nM and > 25000 nM | 75.9 and > 85.1 | 285 nM and 294 nM | 90.7% and 99.6% |  |  |  |  |  |  | 5290 nM | 7380 nM
